Experimental data from patent US10807968B2, “Substituted 2-(het)arylimidazolylcarboxyamides as pesticides” (Bayer CropScience Aktiengesellschaft, priority 2016, dated 2020).
Where two headings read alike, the source gives them in different places.

What was measured:
[1] = test system: Myzus persicae; experiment: Myzus persicae - spray test (Chinese cabbage leaf discs); format: in vivo; conditions: 500 g/ha, after 6 days; for pest or weed control at 500 g/ha: Myzus persicae, foliar, 144 h, read-out: efficacy in % (aphids killed)
Description: Myzus persicae—Spray Test
Solvent: 78 parts by weight of acetone • • 1.5 parts by weight of dimethylformamide
Emulsifier: alkylaryl polyglycol ether
To produce a suitable preparation of active compound, 1 part by weight of active compound is dissolved using the specified parts by weight of solvent and made up with water containing an emulsi fier concentration of 1000 ppm until the desired concentration is attained. To produce further test concentrations, the formulation is diluted with emulsifier-containing water.
Discs of Chinese cabbage leaves (Brassica pekinensis) infested by all stages of the green peach aphid (Myzus persicae) are sprayed with an active compound formulation of the desired concentration.
After 6 days, the efficacy in % is determined. 100% means that all the aphids have been killed; 0% means that no aphids have been killed.

[2] = log P determination by HPLC on reversed-phase (C18) columns, OECD Guideline 117; format: physicochemical; conditions: for chromatographic logP: reversed-phase (C18) HPLC column
Description: The log P values were determined in accordance with OECD Guideline 117 (EC Directive 92/69/EEC) by HPLC (high-performance liquid chromatography) using reversed-phase (RP) columns (C18), by the following methods:
[a] The LC-MS determination in the acidic range was carried out at pH 2.7 with 0.1% aqueous formic acid and acetonitrile (contains 0.1% formic acid) as mobile phases; linear gradient from 10% acetonitrile to 95% acetonitrile.
[b] LC-MS determination in the neutral range was carried out at pH 7.8 with 0.001 molar aqueous ammonium hydrogencarbonate solution and acetonitrile as mobile phases; linear gradient from 10% acetonitrile to 95% acetonitrile.

[3] = test system: Myzus persicae; experiment: Myzus persicae - oral test; format: in vivo; conditions: after 5 days; for pest or weed control at 20 ppm: Myzus persicae, 120 h, read-out: efficacy in % (aphids killed); for efficacy in % (aphids killed): 20 ppm
Description: Solvent: 100 parts by weight of acetone
Subsequently, the plates are sealed with parafilm, which a mixed population of green peach aphids (Myzus persicae) within a second microtitre plate is able to puncture and imbibe the solution through it.
After 5 days, the efficacy in % is determined. 100% means that all the aphids have been killed; 0% means that no aphids have been killed.

[4] = pH 2.7, HPLC, acidic range pH 2.7, 0.1% aqueous formic acid/acetonitrile, read-out: logp-acidic
[5] = pH 7.8, HPLC, neutral range pH 7.8, 0.001 molar aqueous ammonium hydrogencarbonate/acetonitrile, read-out: logp-neutral
[6] = HPLC, acidic range pH 2.7, 0.1% aqueous formic acid/acetonitrile
[7] = HPLC, neutral range pH 7.8, 0.001 molar aqueous ammonium hydrogencarbonate/acetonitrile

Structure (SMILES)	pest or weed control at 500 g/ha [1] [%]	chromatographic logP [2, 4]	chromatographic logP [2, 5]	pest or weed control at 20 ppm [3] [%]	efficacy in % (aphids killed) [1] [%]	logp-neutral ([2]; pH 7.8)	efficacy in % (aphids killed) [3] [%]	logp-acidic [2, 6]	logp-neutral [2, 7]	logp-acidic ([2]; pH 2.7)
CN(C(=O)c1cnc(-c2ccc(C#N)c(C(F)(F)F)c2)n1C)c1cccnc1 [Example 55]	90	1.72	1.92	100	–	–	–	–	–	–
CN(C(=O)c1cnc(-c2cccc(CC(F)(F)F)c2)n1C)c1cccnc1 [Example 56]	–	–	–	–	90	1.96	100	–	–	–
CN(C(=O)c1cnc(-c2cccc(C#N)c2)n1C)c1cccnc1 [Example 58]	–	–	–	–	100	–	100	0.91	1.33	–
CN(C(=O)c1cnc(-c2ccc(Cl)c(C#N)c2)n1C)c1cccnc1 [Example 59]	–	–	–	–	90	–	100	1.42	1.69	–
CN(C(=O)c1cnc(-c2cc(F)cc(C#N)c2)n1C)c1cccnc1 [Example 60]	–	–	–	–	90	1.52	100	–	–	1.21
CN(C(=O)c1cnc(-c2cc(C#N)cc(C(F)(F)F)c2)n1C)c1cccnc1 [Example 61]	–	–	–	–	100	–	100	1.85	1.96	–
COc1ccc(C#N)cc1-c1ncc(C(=O)N(C)c2cccnc2)n1C [Example 62]	–	–	–	–	100	–	100	0.78	1.37	–
CN(C(=O)c1cnc(-c2ccc(F)c(C#N)c2)n1C)c1cccnc1 [Example 63]	–	–	–	–	90	–	100	1.15	1.52	–
CN(C(=O)c1cnc(-c2cnc(N3CCOCC3)c(C#N)c2)n1C)c1cccnc1 [Example 66]	–	–	–	–	90	1.45	100	–	–	1.16
CCOc1ncc(-c2ncc(C(=O)N(C)c3cccnc3)n2C)cc1C#N [Example 67]	–	–	–	–	100	1.73	100	–	–	1.50
CN(C(=O)c1cnc(-c2cc(Cl)cc(C#N)c2)n1C)c1cccnc1 [Example 69]	–	–	–	–	100	–	100	1.52	1.74	–
CN(C(=O)c1cnc(-c2cc(-c3ccccc3)no2)n1C)c1cccnc1 [Example 71]	100	1.9	2.37	100	–	–	–	–	–	–
CC(C)n1cc(-c2ncc(C(=O)N(C)c3cccnc3)n2C)nn1 [Example 73]	–	–	–	–	100	1.24	100	–	–	0.88
CN(C(=O)c1cnc(-c2cn(C)nn2)n1C)c1cccnc1 [Example 74]	100	0.27	0.76	100	–	–	–	–	–	–
CCN(C(=O)c1cnc(-c2cnc(OC)c(C#N)c2)n1C)c1cccnc1 [Example 75]	100	1.46	1.65	100	–	–	–	–	–	–
CCOc1ncc(-c2ncc(C(=O)N(CC)c3cccnc3)n2C)cc1C#N [Example 76]	–	–	–	–	90	1.95	100	–	–	1.69
CN(C(=O)c1cnc(-c2cccc3c2OCC3)n1C)c1cccnc1 [Example 79]	–	–	–	–	100	–	100	–	–	0.7
CN(C(=O)c1cnc(-c2cccc3ccoc23)n1C)c1cccnc1 [Example 80]	–	–	–	–	100	1.62	100	–	–	0.97

Structure (SMILES)	pest or weed control at 500 g/ha [1] [%]	chromatographic logP [2, 4]	chromatographic logP [2, 5]	pest or weed control at 20 ppm [3] [%]	efficacy in % (aphids killed) [1] [%]	logp-neutral ([2]; pH 7.8)	efficacy in % (aphids killed) [3] [%]	logp-acidic [2, 6]	logp-neutral [2, 7]	logp-acidic ([2]; pH 2.7)
COc1ccccc1-c1ncc(C(=O)N(C)c2cccnc2)n1C [Example 82]	–	–	–	–	100	1.45	100	–	–	0.65
COc1ccc(-c2ncc(C(=O)N(C)c3cccnc3)n2C)c(OC)c1 [Example 84]	–	–	–	–	100	1.54	100	–	–	0.8
CN(C(=O)c1cnc(-c2cccc(C(F)(F)F)n2)n1C)c1cccnc1 [Example 86]	–	–	–	–	90	2.04	100	–	–	1.91
COc1ncccc1-c1ncc(C(=O)N(C)c2cccnc2)n1C [Example 88]	–	–	–	–	90	1.16	100	–	–	0.53
CCOc1ccc(-c2ncc(C(=O)N(C)c3cccnc3)n2C)cn1 [Example 89]	–	–	–	–	90	1.53	100	–	–	0.93
COc1ncc(-c2ncc(C(=O)N(C)c3cccnc3)n2C)cc1Cl [Example 90]	–	–	–	–	90	1.68	100	–	–	1.28
CSc1ncccc1-c1ncc(C(=O)N(C)c2cccnc2)n1C [Example 91]	–	–	–	–	90	1.33	100	–	–	0.93
CCOc1ncccc1-c1ncc(C(=O)N(C)c2cccnc2)n1C [Example 92]	–	–	–	–	90	1.43	100	–	–	0.8
COc1cc(-c2ncc(C(=O)N(C)c3cccnc3)n2C)cnc1OC [Example 93]	–	–	–	–	90	1.28	100	–	–	0.66
COc1cc(-c2ncc(C(=O)N(C)c3cccnc3)n2C)ccn1 [Example 94]	–	–	–	–	90	1.26	100	–	–	1
COc1ncc(-c2ncc(C(=O)N(C)c3cccnc3)n2C)cc1C(F)(F)F [Example 95]	–	–	–	–	100	2	100	–	–	1.75
COc1cc(-c2ncc(C(=O)N(C)c3cccnc3)n2C)cc(OC)n1 [Example 97]	–	–	–	–	100	1.67	100	–	–	1.37
COc1cc(C#N)cc(-c2ncc(C(=O)N(C)c3cccnc3)n2C)c1 [Example 100]	–	–	–	–	90	–	100	1.34	1.57	–
COc1ncc(F)cc1-c1ncc(C(=O)N(C)c2cccnc2)n1C [Example 101]	–	–	–	–	100	1.38	100	–	–	0.91
CC(C)Oc1ccc(-c2ncc(C(=O)N(C)c3cccnc3)n2C)cn1 [Example 102]	–	–	–	–	90	1.79	100	–	–	1.21
COc1ccc(-c2ncc(C(=O)N(C)c3cccnc3)n2C)cn1 [Example 103]	–	–	–	–	100	1.25	100	–	–	0.58
CN(C(=O)c1cnc(-c2ccccc2OCC(N)=O)n1C)c1cccnc1 [Example 104]	–	–	–	–	100	1.03	100	–	–	0.23
CN(C(=O)c1cnc(-c2ncccc2Cl)n1C)c1cccnc1 [Example 106]	–	–	–	–	90	1.1	90	–	–	0.75
